The kinase profiling compilation of Christmann-Franck et al. (2016)

Key:
Assay in all cases: SelectScreen, TR FRET
Details in all cases: compound 5.0 µM
PDGFRB (human) = PDGFRB (human) (UniProt P09619)
GRK6 (human) = GRK6 (human) (UniProt P43250)
FLT4 (human) = FLT4 (human) (UniProt P35916)
NTRK2 (human) = NTRK2 (human) (UniProt Q16620)
[1] = system: ABL1 (human), P00519 [E255K]
PRKCI (human) = PRKCI (human) (UniProt P41743)
IGF1R (human) = IGF1R (human) (UniProt P08069)
PHKG1 (human) = PHKG1 (human) (UniProt Q16816)
JAK2 JH1 JH2 (human) = JAK2 JH1 JH2 (human) (UniProt O60674)
PAK4 (human) = PAK4 (human) (UniProt O96013)
MAPKAPK2 (human) = MAPKAPK2 (human) (UniProt P49137)
MAPKAPK2 (human), sequence (P49137 whole entry, looked up): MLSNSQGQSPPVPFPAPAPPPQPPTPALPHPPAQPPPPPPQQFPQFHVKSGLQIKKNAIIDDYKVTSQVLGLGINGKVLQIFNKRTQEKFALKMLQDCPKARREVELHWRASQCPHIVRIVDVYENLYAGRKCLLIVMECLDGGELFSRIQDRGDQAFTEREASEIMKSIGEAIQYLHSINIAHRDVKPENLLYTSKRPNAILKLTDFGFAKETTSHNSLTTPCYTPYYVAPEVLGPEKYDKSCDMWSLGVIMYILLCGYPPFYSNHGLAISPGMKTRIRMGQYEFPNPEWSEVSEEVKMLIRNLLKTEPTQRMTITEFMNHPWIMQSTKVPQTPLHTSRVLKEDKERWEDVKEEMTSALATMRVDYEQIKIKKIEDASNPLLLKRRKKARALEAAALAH

LCK (human) = LCK (human) (UniProt P06239)
STK25 (human) = STK25 (human) (UniProt O00506)
PRKCD (human) = PRKCD (human) (UniProt Q05655)
EPHB3 (human) = EPHB3 (human) (UniProt P54753)
EPHB3 (human), sequence (P54753 whole entry, looked up): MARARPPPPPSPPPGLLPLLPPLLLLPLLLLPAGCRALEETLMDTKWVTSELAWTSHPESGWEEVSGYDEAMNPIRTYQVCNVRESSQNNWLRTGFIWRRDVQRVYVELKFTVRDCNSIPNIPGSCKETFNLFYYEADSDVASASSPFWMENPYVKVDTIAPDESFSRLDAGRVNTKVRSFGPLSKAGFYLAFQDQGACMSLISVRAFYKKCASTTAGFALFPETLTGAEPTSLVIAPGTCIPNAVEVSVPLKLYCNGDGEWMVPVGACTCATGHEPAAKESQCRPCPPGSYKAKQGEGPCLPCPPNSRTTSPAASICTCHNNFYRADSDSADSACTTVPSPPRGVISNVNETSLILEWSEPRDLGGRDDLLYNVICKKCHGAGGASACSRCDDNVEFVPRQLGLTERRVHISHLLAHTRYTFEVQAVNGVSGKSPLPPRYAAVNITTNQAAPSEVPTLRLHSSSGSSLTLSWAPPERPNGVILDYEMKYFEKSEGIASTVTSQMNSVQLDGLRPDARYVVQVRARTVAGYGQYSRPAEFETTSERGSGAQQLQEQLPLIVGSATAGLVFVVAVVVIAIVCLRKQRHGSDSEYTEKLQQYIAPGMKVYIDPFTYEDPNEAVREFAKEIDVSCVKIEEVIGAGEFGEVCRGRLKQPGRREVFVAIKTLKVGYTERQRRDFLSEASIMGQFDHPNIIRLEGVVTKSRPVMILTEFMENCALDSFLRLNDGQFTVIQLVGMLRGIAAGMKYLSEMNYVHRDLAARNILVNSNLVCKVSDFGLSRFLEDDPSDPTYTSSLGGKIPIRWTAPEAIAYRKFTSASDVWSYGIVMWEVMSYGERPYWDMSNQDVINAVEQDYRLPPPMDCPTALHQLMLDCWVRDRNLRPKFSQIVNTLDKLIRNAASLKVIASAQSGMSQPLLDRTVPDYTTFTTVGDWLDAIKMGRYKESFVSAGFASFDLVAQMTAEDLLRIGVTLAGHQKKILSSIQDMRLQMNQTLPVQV

NTRK3 (human) = NTRK3 (human) (UniProt Q16288)
EPHA4 (human) = EPHA4 (human) (UniProt P54764)
JAK3 JH1 JH2 (human) = JAK3 JH1 JH2 (human) (UniProt P52333)
CDK1 CCNB1 (human) = CDK1 CCNB1 (human) (UniProt P06493+P14635)
STK3 (human) = STK3 (human) (UniProt Q13188)
CLK2 (human) = CLK2 (human) (UniProt P49760)
KDR (human) = KDR (human) (UniProt P35968)
[2] = system: PDGFRA (human), P16234 [D842V]
MUSK (human) = MUSK (human) (UniProt O15146)
PIM1 (human) = PIM1 (human) (UniProt P11309)
PRKCH (human) = PRKCH (human) (UniProt P24723)
EPHA1 (human) = EPHA1 (human) (UniProt P21709)
EPHA1 (human), sequence (P21709 whole entry, looked up): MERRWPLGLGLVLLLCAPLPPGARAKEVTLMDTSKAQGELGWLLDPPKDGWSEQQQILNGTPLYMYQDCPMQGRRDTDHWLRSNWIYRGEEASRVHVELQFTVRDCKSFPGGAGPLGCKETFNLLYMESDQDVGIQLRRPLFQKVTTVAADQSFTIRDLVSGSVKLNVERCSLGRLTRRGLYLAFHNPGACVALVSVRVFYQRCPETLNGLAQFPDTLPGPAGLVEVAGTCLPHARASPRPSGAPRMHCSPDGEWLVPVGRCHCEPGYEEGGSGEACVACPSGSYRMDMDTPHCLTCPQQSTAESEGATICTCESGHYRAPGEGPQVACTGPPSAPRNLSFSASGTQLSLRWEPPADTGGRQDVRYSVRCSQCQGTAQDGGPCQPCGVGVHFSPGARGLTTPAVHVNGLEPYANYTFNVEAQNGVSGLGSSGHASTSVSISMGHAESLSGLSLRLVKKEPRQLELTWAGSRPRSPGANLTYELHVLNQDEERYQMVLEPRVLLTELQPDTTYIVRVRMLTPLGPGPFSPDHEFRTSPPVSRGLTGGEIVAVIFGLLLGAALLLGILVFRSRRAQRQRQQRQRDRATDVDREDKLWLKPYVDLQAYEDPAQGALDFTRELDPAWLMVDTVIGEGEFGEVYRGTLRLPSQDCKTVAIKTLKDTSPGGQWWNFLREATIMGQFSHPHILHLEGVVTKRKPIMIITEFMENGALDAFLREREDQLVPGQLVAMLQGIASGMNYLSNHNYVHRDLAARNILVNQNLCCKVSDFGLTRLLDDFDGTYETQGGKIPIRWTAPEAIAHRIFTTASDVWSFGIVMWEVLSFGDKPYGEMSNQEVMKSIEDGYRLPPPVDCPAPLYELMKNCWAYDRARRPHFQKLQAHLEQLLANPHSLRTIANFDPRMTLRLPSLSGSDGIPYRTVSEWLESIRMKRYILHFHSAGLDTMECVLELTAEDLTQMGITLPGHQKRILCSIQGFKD

MET (human) = MET (human) (UniProt P08581)
PKN1 (human) = PKN1 (human) (UniProt Q16512)
MATK (human) = MATK (human) (UniProt P42679)
PRKCQ (human) = PRKCQ (human) (UniProt Q04759)
MINK1 (human) = MINK1 (human) (UniProt Q8N4C8)
MINK1 (human), sequence (Q8N4C8 whole entry, looked up): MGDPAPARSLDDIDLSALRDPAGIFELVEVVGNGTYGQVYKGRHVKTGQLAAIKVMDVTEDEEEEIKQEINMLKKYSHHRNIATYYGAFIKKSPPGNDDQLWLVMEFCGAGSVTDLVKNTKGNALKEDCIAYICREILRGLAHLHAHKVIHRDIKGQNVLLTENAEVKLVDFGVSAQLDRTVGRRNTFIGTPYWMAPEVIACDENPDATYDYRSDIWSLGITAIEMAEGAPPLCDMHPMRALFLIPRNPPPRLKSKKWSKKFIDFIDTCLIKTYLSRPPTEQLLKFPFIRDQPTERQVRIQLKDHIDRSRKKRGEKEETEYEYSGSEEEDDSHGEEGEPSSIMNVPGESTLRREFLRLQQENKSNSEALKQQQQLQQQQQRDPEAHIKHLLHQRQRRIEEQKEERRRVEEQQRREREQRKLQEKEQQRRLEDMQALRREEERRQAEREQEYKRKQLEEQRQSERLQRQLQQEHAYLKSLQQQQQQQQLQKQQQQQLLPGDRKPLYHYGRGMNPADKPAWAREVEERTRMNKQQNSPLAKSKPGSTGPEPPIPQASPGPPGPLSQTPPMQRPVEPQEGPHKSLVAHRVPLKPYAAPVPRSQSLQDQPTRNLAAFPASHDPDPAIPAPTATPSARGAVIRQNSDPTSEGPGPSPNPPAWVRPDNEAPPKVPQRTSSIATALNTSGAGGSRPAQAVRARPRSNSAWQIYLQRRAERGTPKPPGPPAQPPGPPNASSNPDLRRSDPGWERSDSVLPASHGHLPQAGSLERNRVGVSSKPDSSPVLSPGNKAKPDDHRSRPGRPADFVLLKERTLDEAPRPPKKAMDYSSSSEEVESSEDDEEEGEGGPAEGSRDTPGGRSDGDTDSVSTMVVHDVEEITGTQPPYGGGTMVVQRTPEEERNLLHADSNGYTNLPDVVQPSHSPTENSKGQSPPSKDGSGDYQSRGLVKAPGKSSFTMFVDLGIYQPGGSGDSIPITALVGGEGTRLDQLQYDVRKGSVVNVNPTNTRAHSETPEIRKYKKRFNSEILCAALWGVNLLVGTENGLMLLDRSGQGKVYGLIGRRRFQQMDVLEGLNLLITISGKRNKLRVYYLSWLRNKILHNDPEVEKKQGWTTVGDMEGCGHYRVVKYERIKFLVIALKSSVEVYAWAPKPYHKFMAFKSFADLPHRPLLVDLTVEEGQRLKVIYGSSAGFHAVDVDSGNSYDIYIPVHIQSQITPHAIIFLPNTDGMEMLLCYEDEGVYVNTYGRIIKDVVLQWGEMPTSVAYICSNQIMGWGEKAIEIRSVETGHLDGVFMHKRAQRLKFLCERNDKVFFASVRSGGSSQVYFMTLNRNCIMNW

PRKCA (human) = PRKCA (human) (UniProt P17252)
GRK7 (human) = GRK7 (human) (UniProt Q8WTQ7)
GSK3B (human) = GSK3B (human) (UniProt P49841)
EPHA8 (human) = EPHA8 (human) (UniProt P29322)
MAPKAPK3 (human) = MAPKAPK3 (human) (UniProt Q16644)
CSNK1G2 (human) = CSNK1G2 (human) (UniProt P78368)
SGK2 (human) = SGK2 (human) (UniProt Q9HBY8)
PTK6 (human) = PTK6 (human) (UniProt Q13882)

PDGFRB (human), sequence (P09619 whole entry, looked up): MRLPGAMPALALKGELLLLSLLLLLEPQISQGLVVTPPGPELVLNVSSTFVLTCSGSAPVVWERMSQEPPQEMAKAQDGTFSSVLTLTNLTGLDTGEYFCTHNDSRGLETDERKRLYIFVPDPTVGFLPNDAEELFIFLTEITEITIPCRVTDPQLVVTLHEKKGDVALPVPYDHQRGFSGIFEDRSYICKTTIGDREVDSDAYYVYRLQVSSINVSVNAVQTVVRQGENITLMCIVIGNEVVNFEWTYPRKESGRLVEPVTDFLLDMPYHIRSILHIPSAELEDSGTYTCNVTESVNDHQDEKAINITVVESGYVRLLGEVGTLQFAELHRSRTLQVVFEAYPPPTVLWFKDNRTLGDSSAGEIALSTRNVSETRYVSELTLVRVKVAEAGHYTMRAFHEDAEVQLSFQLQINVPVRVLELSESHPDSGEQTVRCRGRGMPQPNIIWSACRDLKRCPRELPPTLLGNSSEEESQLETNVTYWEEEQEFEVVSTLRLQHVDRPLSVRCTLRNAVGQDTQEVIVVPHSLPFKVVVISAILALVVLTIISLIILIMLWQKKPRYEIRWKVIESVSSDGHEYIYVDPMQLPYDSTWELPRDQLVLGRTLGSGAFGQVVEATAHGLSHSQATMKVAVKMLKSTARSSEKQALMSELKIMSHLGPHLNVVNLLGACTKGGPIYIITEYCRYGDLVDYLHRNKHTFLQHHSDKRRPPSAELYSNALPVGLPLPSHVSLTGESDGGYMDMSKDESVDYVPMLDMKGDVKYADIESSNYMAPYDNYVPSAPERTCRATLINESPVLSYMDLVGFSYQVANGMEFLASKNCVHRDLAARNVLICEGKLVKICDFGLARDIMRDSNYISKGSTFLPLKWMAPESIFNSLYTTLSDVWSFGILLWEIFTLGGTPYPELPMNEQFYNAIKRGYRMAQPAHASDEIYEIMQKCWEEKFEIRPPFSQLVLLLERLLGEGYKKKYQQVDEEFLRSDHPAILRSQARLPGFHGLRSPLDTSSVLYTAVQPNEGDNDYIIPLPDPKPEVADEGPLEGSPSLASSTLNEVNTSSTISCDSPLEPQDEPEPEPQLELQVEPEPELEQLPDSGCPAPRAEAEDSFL

Nc1cc(C(F)(F)F)c(-c2cc(N3CCOCC3)nc(N3CCOCC3)n2)cn1
inhibition (PDGFRB (human)): 5% | inhibition (GRK6 (human)): 4% | inhibition (FLT4 (human)): 2% | inhibition (NTRK2 (human)): 9% | inhibition [1]: -4% | inhibition (PRKCI (human)): 9% | inhibition (IGF1R (human)): 1% | inhibition (PHKG1 (human)): 11% | inhibition (JAK2 JH1 JH2 (human)): 18% | inhibition (PAK4 (human)): -2% | inhibition (MAPKAPK2 (human)): -4% | inhibition (LCK (human)): 7% | inhibition (STK25 (human)): 6% | inhibition (PRKCD (human)): 4% | inhibition (EPHB3 (human)): -1% | inhibition (NTRK3 (human)): 4% | inhibition (EPHA4 (human)): 9% | inhibition (JAK3 JH1 JH2 (human)): 7% | inhibition (CDK1 CCNB1 (human)): 9% | inhibition (STK3 (human)): 5% | inhibition (CLK2 (human)): 15% | inhibition (KDR (human)): 3% | inhibition [2]: 1% | inhibition (MUSK (human)): 5% | inhibition (PIM1 (human)): 6% | inhibition (PRKCH (human)): 4% | inhibition (EPHA1 (human)): -2% | inhibition (MET (human)): 5% | inhibition (PKN1 (human)): 9% | inhibition (MATK (human)): 0% | inhibition (PRKCQ (human)): 5% | inhibition (MINK1 (human)): 4% | inhibition (PRKCA (human)): 4% | inhibition (GRK7 (human)): 0% | inhibition (GSK3B (human)): 7% | inhibition (EPHA8 (human)): 3% | inhibition (MAPKAPK3 (human)): 1% | inhibition (CSNK1G2 (human)): 0% | inhibition (SGK2 (human)): 10% | inhibition (PTK6 (human)): -10%
